Source: patent US20250212681A1, “Light-Emitting Device” (Semiconductor Energy Laboratory Co., Ltd., priority 2023, published 2025)

Test: Solubility test of PrdP2Phen by LC-MS analysis
Format: physicochemical
Details: 1 mg in 1 mL of water, ultrasonic waves 5 minutes, filtrate analysed by LC-MS; one atmosphere, room temperature
Procedure: Next, a solubility test of PrdP2Phen was performed. Note that the solubility test was conducted at a pressure of one atmosphere at room temperature (RT).
In the LC-MS analysis, liquid chromatography (LC) separation was carried out with ACQUITY UPLC (manufactured by Waters Corporation), and MS analysis (mass spectrometry) was carried out with Xevo G2 Tof MS (manufactured by Waters Corporation). Acquity UPLC BEH C8 (2.1×100 mm, 1.7 μm) was used as a column for the LC separation. Acetonitrile was used for Mobile Phase A and a 0.1% aqueous solution of formic acid was used for Mobile Phase B. The injection amount of the sample was 5.0 μL. Note that in the analysis, the wavelength of a photodiode array detector was set to 263 nm±1 nm.
In a 5-mL sample bottle, 1 mg of PrdP2Phen was put and 1 mL of water was added thereto. This mixture was irradiated with ultrasonic waves for 5 minutes. This mixture was filtered through a membrane filter to remove the solid, and the resulting filtrate was diluted by five times with acetonitrile. The obtained solution was subjected to LC-MS analysis.

## c1cc(-c2ccc(N3CCCC3)cc2)c2ccc3c(-c4ccc(N5CCCC5)cc4)ccnc3c2n1 [PrdP2Phen, 4,7-bis[4-(1-pyrrolidinyl)phenyl]-1,10-phenanthroline]
  solubility in water: extremely low solubility in water
